# Laboratory results taken from US20060177503A1, “Bambuterol and integrin inhibitor combination and treatment method” (priority 2005, published 2006).
# Experiments:
# plasma cholinesterase = plasma cholinesterase (Homo sapiens, UniProt P06276); conditions: cited from earlier work
# smooth muscle = conditions: cited from earlier work
# [1] = test system: histamine induced bronchoconstriction; conditions: cited from earlier work
# Hydrolytic stability = assay type: physicochemical
# Description: The pharmaceutical dosage forms of the present invention can be prepared according to the examples set out below. […] Furthermore, both compounds are weak bases and the solubility and stability of the compounds are sensitive to counter-ions. In order to assure the stability of the product and to achieve desirable solubility of the dosage form, the choice of excipient is critical. Including an acidulating agent such as fumaric acid, adipic acid, succinic acid, tartaric acid, citric acid, lactic acid, maleic acid, etc., in the formulation, as well as eliminating soluble cations, is important to assure the solubility and stability of the product.
# [2] = test system: mild/moderate asthmatics not treated with inhaled corticosteroids; experiment: ARES study: R411 monotherapy over a 12 week treatment period; assay type: in vivo, human
# Procedure: The ARES study illustrated in FIG. 3 was designed to evaluate the safety and efficacy of monotherapy R411 over a 12 week treatment period in 480 mild/moderate asthmatics not treated with inhaled corticosteroids. Patients were randomized to one of four cohorts: 50, 200, 600 mg QD R411, or placebo (n=120/group).
# The ARES study evaluated the safety and efficacy of monotherapy with R411 over a 12-week treatment period in 479 mild/moderate asthmatics not treated with inhaled corticosteroids. Patients were randomized to one of four cohorts: 50, 200, 600 mg once daily R411, or placebo.
# [3] = test system: persistent asthmatics treated with low to medium inhaled corticosteroids; experiment: MARS study: R411 added to inhaled corticosteroids, 12 week treatment period; assay type: in vivo, human; conditions: added to moderate dose inhaled corticosteroids, subpopulation with not well controlled asthma
# Description: As set out above, a second component in the solid pharmaceutical dosage form comprises a therapeutically effective amount of R411 (N-(2-chloro-6-methylbenzoyl)-4-[(2,6-dichlorobenzoyl)amino]-L-phenylalanine-2-(diethylamino)ethyl ester), or a pharmaceutically acceptable salt thereof. […] The MARS study illustrated in FIG. 2 was designed to evaluate the safety and efficacy of R411 over a 12 week treatment period in 350 persistent asthmatics being treated with a stable dose of low to medium inhaled corticosteroids and inhaled short acting β2-agonist. Patients were randomized to one of five cohorts: 50, 200, 600 mg once daily (QD) or 300 mg twice daily (BID) R411, or placebo (n=70/group). After a 2-week placebo run-in period and subsequent 2-week add-on period (R411 or placebo), morning inhaled corticosteroids were removed. Two weeks later, evening inhaled corticosteroids were removed, and patients remained in the treatment period for an additional 8 weeks. The primary endpoint in the study was the percentage change in FEV1 from baseline, and secondary endpoint included PEFR, asthma exacerbations, (2-agonist use, asthma control questionnaire, asthma symptom scores, nocturnal awakenings, FEF25-75 and rate of asthma treatment failures.
# atopic primate = experiment: Airway inflammation in the atopic primate, oral R411; assay type: in vivo; conditions: oral administration, FIG. 4
# α4/β1 = α4/β1 (Homo sapiens, UniProt P05556+P13612); experiment: Inhibition of binding of α4/β1 to VCAM-1
# α4/β1, sequence (P05556 21-798, one chain of several): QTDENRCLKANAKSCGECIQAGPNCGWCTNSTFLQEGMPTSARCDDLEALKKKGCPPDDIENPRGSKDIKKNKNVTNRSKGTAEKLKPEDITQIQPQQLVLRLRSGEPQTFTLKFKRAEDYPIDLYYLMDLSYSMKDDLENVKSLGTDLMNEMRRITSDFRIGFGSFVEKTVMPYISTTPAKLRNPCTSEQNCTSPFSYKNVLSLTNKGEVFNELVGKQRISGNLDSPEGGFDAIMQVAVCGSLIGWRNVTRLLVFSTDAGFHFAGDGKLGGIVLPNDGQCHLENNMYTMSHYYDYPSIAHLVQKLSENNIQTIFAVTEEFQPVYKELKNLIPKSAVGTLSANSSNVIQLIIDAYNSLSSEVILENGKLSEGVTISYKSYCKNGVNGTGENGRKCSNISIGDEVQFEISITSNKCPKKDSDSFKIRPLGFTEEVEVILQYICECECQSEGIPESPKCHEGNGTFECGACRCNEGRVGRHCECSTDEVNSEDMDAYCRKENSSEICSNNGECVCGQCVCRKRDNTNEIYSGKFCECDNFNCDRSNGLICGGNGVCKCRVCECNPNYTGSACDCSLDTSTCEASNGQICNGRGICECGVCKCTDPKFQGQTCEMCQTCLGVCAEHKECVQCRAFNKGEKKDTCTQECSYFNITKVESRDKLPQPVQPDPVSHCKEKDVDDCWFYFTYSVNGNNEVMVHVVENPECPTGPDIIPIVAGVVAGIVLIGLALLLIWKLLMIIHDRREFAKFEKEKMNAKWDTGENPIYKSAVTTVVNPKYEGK
# Description: (§1) R411 inhibits the binding of α4/β1 to vascular cell adhesion molecule (VCAM-1) and α4/β7 to MadCAM-1 by […] is disclosed in U.S. Pat. No. 6,229,011, which disclosure is incorporated by reference herein.
# α4/β7 = biological target: T1, α4/β7 (Homo sapiens, UniProt P13612+P26010); experiment: Inhibition of binding of α4/β7 to MadCAM-1
# T1 sequence (P13612 34-1032): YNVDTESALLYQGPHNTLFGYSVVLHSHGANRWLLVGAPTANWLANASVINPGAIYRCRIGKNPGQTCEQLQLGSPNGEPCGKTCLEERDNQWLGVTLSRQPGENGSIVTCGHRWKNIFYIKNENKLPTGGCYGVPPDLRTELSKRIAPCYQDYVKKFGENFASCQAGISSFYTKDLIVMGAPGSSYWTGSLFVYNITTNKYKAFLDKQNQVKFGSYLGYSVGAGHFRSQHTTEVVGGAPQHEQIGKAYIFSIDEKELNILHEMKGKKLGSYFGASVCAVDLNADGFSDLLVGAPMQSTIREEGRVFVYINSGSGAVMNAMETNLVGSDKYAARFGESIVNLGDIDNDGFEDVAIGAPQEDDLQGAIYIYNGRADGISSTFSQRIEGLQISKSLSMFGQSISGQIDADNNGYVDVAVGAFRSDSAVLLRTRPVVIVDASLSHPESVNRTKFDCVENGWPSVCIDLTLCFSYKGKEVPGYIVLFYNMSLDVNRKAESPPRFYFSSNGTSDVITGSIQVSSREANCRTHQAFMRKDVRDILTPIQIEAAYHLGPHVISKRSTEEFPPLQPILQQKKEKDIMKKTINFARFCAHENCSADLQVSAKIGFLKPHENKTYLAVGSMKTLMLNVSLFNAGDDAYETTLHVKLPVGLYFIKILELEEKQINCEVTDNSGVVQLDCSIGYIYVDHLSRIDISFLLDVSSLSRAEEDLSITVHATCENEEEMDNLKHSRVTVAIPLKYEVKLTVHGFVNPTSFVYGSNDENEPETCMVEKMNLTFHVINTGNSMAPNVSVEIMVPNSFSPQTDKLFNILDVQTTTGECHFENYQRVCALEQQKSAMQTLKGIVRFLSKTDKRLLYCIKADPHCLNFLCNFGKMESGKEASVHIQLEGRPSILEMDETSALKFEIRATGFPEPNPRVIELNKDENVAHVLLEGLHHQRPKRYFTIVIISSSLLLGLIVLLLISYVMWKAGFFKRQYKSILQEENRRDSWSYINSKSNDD
# T1 sequence (P26010 20-798): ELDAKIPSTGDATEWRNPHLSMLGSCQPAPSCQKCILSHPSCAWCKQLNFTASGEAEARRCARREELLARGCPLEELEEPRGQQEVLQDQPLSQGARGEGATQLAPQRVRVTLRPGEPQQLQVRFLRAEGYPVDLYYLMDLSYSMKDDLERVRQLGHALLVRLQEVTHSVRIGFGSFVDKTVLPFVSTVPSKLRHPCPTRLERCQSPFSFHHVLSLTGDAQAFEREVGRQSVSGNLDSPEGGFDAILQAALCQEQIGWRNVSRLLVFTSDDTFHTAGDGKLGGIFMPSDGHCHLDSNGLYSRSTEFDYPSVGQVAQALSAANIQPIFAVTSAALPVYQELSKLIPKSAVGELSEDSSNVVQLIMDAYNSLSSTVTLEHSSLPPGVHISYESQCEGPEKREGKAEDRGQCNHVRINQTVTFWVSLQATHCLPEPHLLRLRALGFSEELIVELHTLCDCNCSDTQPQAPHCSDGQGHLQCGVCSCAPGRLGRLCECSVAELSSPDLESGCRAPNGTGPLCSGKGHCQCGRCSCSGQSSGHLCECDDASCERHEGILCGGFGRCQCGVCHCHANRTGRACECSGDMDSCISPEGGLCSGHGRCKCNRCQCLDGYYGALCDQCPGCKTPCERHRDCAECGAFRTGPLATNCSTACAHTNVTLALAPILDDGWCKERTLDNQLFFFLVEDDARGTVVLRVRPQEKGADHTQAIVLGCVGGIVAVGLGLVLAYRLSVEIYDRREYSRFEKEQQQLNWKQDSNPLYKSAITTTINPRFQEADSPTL
# Description: as §1
# key inflammatory cells = experiment: Migration of inflammatory cells from the blood into the lungs; conditions: in vivo
# [4] = biological target: T2, (Homo sapiens, UniProt P13612); experiment: In vitro binding to α4 integrin, activated and not activated
# T2 sequence (P13612 34-1032): T1 sequence (P13612 34-1032)
# plasma cholinesterase, sequence (P06276 29-602): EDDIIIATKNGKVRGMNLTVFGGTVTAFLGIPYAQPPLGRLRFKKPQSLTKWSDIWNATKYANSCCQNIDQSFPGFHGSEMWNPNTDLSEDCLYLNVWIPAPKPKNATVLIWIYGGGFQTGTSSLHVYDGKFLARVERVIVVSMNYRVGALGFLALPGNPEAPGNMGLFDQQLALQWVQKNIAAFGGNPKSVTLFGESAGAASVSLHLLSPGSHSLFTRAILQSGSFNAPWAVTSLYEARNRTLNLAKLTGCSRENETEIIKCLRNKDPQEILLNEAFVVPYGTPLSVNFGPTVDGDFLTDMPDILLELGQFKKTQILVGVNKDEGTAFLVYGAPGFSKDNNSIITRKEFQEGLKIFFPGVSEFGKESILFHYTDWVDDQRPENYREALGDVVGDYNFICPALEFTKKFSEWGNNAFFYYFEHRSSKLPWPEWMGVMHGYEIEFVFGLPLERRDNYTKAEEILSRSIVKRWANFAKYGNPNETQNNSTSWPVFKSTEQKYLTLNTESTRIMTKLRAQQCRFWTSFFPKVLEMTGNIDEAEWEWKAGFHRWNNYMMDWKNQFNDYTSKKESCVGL
smiles,measurement,setting,value
"CN(C)C(=O)Oc1cc(OC(=O)N(C)C)cc(C(O)CNC(C)(C)C)c1 (single isomer, unassigned; (-)) [(−)-bambuterol]",activity as plasma cholinesterase inhibitors,plasma cholinesterase,equally active
CN(C)C(=O)Oc1cc(OC(=O)N(C)C)cc([C@H](O)CNC(C)(C)C)c1 [(+)-bambuterol],activity as plasma cholinesterase inhibitors,plasma cholinesterase,equally active
"CN(C)C(=O)Oc1cc(OC(=O)N(C)C)cc(C(O)CNC(C)(C)C)c1 (centres unmarked) [Bambuterol, dimethylcarbamic acid 5-[2-[(1,1-dimethylethyl)amino]-1-hydroxyethyl]-1,3-phenylene ester]",smooth muscle relaxing properties,smooth muscle,did not exert any
same,duration of the relaxing activity,"[1]; equipotent doses, compared with terbutaline",more prolonged
same,protective effect against histamine induced bronchoconstriction,[1]; oral administration,sustained protective effect
same,hydrolytic degradation,Hydrolytic stability,susceptible to hydrolytic degradation
"CCN(CC)CCOC(=O)[C@H](Cc1ccc(NC(=O)c2c(Cl)cccc2Cl)cc1)NC(=O)c1c(C)cccc1Cl [R411, N-(2-Chloro-6-methylbenzoyl)-4-[(2,6-dichlorobenzoyl)amino]-L-phenylalanine-2-(diethylamino)ethyl ester]",Asthma Control Questionnaire Scores,[2]; compared to placebo,Improvement
same,Asthma Quality-of-Life,[2]; compared to placebo,Improvement
same,decrease in daytime asthma symptom score,"[2]; monotherapy, 12 weeks",Statistically significant improvements
same,decrease in nocturnal symptom score,"[2]; monotherapy, 12 weeks",Statistically significant improvements
same,reducing rescue albuterol use,"[2]; monotherapy, 12 weeks",Statistically significant improvements
same,small airway flow rates as measured by FEF25-75,"[2]; monotherapy, FIG. 3",significant effect
same,large airway flow rates as measured by FEV1,[3]; FIG. 1,additive effect
same,small airway flow rates measured by FEF25-75,[3]; FIG. 2,additive effect
same,airway inflammation,atopic primate,attenuates airway inflammation
same,hydrolytic degradation,Hydrolytic stability,susceptible to hydrolytic degradation
same,binding of α4/β1 to VCAM-1,α4/β1,inhibits
same,effectiveness against α4/β1 integrin,α4/β1,effective
same,binding of α4/β7 to MadCAM-1,α4/β7,inhibits
same,effectiveness against α4/β7 integrin,α4/β7,effective
same,migration of key inflammatory cells from the blood into the lungs,key inflammatory cells,block the migration
same,binding affinity,[4]; activated α4 ligand,high affinity
same,dissociation,[4]; activated α4 ligand,slow dissociation
same,dissociation,[4]; receptor not activated,more rapid
same,in vitro binding affinity,[4]; receptor not activated,lower
CN(C)C(=O)Oc1cc(O)cc(C(O)CNC(C)(C)C)c1 (centres unmarked) [monocarbamate ester],smooth muscle relaxing properties,smooth muscle,did not exert any
